Here are results for eleven molecules from patent US11702426B2, “Macrocyclic deaza-purinones for the treatment of viral infections” (JANSSEN SCIENCES IRELAND UNLIMITED COMPANY, priority 2013, dated 2023).

Like-named read-outs stand apart in the source and are kept apart here.

For data set [1] the following is noted: rcm bond.
The next data set concerns HEK293 NFκB-luc. As to the kind of experiment: Counterscreen: HEK293 cells transfected with NFκB-luc reporter construct alone. The format is cell-based. The following applies: lowest effective concentration; greater than the highest tested concentration. As to the method:
In parallel, a similar dilution series of compound was used (200 nL of compound in 100% DMSO) with 40 μL per well of cells transfected with NFκB-luc reporter construct alone (1.25×10^5 cells/mL). Six hours after incubation at 37° C., 5% CO2, the luciferase activity was determined by adding 15 μl of Steady Lite Plus substrate (Perkin Elmer) to each well and readout performed on a ViewLux ultraHTS microplate imager (Perkin Elmer). Counterscreen data is reported as LEC.
(In general: A counterscreen serves to expose hits that act by an unwanted route or on another target.)

Data set [2] has as its system interferon production in human PBMC. As to the kind of experiment: Interferon production in human PBMC, read out on HEK-ISRE-luc reporter cells. The format is cell-based. The note with it: Homo sapiens, PBMC, 24 h, lowest effective concentration, PBMC incubated overnight with compound, supernatant transferred to HEK-ISRE-luc cells, read-out: PBMC HEK-ISRE-luc (LEC; μM). The protocol:
Activation of human TLR7 results in robust production of interferon by plasmacytoid dendritic cells present in human blood. The potential of compounds to induce interferon was evaluated by determination of interferon in the conditioned media from peripheral blood mononuclear cells (PBMC). The presence of interferon in the samples was determined, using an interferon reporter cell line stably expressing an interferon-stimulated responsive elements (ISRE)-luc reporter construct. The ISRE element with sequence TAGTTTCACTTTCCC (SEQ ID NO: 1) is highly responsive to the STAT1-STAT2-IRF9 transcription factor, which becomes activated upon binding of IFN-I to the IFN receptor. Briefly, PBMCs were prepared from buffy coats of at least two donors using a standard Ficoll centrifugation protocol. Isolated PBMCs were resuspended in RPMI medium supplemented with 10% human AB serum and 2×10^5 cells/well were dispensed into 384-well plates containing compounds (70 μL total volume). After overnight incubation of the PBMCs with the compounds, 10 μL of supernatant was transferred to 384-well plates containing 5×10^3 HEK-ISRE-luc cells/well in 30 μL (plated the day before). Following 24 hours of incubation, activation of the ISRE elements was measured by assaying luciferase activity using 40 μL/well Steady Lite Plus substrate (Perkin Elmer) and measured with ViewLux ultraHTS microplate imager (Perkin Elmer). The stimulating activity of each compound on the HEK-ISRE-luc cells was reported as LEC. The LEC in turn indicates the degree of ISRE activation on transfer of a defined amount of PBMC culture medium. Recombinant interferon alfa-2a (Roferon-A) was used as a standard control compound.

Another data set concerns the target T1, human TLR7 (Homo sapiens, UniProt Q9NYK1).
T1 construct: expressed in transfected cells; host or cells: HEK293
T1 sequence (Q9NYK1 27-1049): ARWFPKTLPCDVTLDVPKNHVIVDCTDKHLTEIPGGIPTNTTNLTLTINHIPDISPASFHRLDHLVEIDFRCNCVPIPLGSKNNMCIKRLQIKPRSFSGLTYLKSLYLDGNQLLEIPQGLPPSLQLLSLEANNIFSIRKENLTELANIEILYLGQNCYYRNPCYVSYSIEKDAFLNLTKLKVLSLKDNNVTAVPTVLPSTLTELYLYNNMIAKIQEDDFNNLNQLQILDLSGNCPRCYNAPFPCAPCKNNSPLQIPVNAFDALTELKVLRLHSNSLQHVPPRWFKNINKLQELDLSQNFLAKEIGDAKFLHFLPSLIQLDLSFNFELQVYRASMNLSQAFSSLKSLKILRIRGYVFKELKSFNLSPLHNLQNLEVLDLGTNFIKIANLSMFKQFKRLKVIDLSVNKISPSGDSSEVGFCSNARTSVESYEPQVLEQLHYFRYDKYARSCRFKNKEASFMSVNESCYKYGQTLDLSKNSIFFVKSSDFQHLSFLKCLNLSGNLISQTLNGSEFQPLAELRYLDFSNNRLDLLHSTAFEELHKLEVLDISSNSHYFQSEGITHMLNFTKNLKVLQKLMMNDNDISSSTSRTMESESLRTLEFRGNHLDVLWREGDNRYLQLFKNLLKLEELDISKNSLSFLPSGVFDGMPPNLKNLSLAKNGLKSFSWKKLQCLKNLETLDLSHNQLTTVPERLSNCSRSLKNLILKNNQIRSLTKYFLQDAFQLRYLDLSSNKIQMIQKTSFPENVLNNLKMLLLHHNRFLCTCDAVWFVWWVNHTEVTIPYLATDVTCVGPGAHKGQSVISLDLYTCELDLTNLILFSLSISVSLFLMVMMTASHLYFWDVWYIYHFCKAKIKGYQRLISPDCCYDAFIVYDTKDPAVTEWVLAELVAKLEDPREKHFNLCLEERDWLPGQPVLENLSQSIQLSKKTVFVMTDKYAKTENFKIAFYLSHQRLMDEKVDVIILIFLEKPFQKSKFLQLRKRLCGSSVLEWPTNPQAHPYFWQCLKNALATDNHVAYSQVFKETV
As to the kind of experiment: HEK293 TLR7-NFκB-luc cellular reporter assay. The format is cell-based. The following applies: lowest effective concentration; HEK293 transiently transfected with TLR7 and NFκB-luc; 6 hours incubation. The protocol:
(§1) The ability of compounds to activate human TLR7 and TLR8 was assessed in a cellular reporter assay using HEK293 cells transiently transfected with a TLR7 or TLR8 expression vector and NFκB-luc reporter construct. Briefly, HEK293 cells were grown in culture medium (DMEM supplemented with 10% FCS and 2 mM Glutamine). For transfection of cells in 15 cm dishes, cells were detached with Trypsin-EDTA, transfected with a mix of CMV-TLR7 or TLR8 plasmid (1,700 ng), NFκB-luc plasmid (850 ng) and a transfection reagent and incubated 48 hours at 37° C. in a humidified 5% CO2 atmosphere. Transfected cells were then washed in PBS, detached with Trypsin-EDTA, and resuspended in medium to a density of 1.25×10^5 cells/mL. Forty microliters of cells were then dispensed into each well in 384-well plates, where 200 nL of compound in 100% DMSO was already present. Following 6 hours incubation at 37° C., 5% CO2, the luciferase activity was determined by adding 15 μl of Steady Lite Plus substrate (Perkin Elmer) to each well and readout performed on a ViewLux ultraHTS microplate imager (Perkin Elmer). Dose response curves were generated from measurements performed in quadruplicates. Lowest effective concentrations (LEC) values, defined as the concentration that induces an effect which is at least two fold above the standard deviation of the assay, were determined for each compound.
A general note: A reporter such as luciferase makes a cellular process visible.

The next data set deals with T2, human TLR8 (Homo sapiens, UniProt Q9NR97).
T2 construct: expressed in transfected cells; host or cells: HEK293
T2 sequence (Q9NR97 27-1041): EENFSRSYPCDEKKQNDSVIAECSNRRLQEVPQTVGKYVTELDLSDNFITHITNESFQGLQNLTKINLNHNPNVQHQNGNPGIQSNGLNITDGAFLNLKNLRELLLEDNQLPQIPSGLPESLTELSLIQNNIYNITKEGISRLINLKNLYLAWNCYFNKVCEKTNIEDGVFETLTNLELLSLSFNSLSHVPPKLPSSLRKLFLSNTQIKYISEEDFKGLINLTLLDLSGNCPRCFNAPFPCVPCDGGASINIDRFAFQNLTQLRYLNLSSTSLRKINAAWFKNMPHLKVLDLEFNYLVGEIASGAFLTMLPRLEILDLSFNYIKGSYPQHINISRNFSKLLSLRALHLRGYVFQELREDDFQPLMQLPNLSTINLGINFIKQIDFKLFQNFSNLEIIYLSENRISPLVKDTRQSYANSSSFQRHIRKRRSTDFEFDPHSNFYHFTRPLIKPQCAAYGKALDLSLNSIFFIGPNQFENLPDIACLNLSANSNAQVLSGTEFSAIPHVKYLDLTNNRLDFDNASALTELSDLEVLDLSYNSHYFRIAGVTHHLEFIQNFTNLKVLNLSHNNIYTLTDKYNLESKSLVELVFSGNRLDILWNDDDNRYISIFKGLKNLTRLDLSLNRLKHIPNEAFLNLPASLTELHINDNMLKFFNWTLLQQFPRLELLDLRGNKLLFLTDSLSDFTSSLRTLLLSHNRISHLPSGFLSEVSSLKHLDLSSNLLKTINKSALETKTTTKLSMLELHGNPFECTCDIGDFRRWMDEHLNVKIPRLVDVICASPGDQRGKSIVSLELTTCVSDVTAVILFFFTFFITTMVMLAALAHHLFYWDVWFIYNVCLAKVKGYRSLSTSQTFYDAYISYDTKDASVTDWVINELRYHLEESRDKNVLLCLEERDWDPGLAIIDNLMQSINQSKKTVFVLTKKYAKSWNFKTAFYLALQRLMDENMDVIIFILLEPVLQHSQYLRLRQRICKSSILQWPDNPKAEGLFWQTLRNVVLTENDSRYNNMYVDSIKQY
Description: HEK293 TLR8-NFκB-luc cellular reporter assay. The format is cell-based. The following applies: lowest effective concentration; greater than the highest tested concentration. As to the method:
as §1

As for `CCOC(=O)N1CCc2ccc(OC)c(c2)OCC=CCOc2cc1c([N+](=O)[O-])c(N)n2`, in data set [1] (from C=CCOc1cc(N(CCc2ccc(OC)c(OCC=C)c2)C(=O)OCC)c([N+](=O)[O-])c(N)n1, Grubbs-Hoveyda catalyst 2nd generation (with chlorodicyclohexylborane), 1,2-dichloroethane, 4.24 mM, 120.0 °C, 23.0 h), the ring closure, yield of all isomers is 25%.

As to `CCOC(=O)N1Cc2cc(OC)cc(c2)OCC=CCCOc2cc1c([N+](=O)[O-])c(N)n2`, in data set [1] (from C=CCCOc1cc(N(Cc2cc(OC)cc(OCC=C)c2)C(=O)OCC)c([N+](=O)[O-])c(N)n1, Grubbs 2nd generation, CH2Cl2, 5.3 mM, 25.0 °C, 16.0 h), the ring closure, yield of all isomers worked out at 41%.

With `CCOC(=O)N1Cc2cccc(c2)CC=CCCOc2cc1c([N+](=O)[O-])c(N)n2`, the ring closure, yield of all isomers in data set [1] (from C=CCCOc1cc(N(Cc2cccc(CC=C)c2)C(=O)OCC)c([N+](=O)[O-])c(N)n1, Grubbs 2nd generation, CH2Cl2, 3.38 mM, 25.0 °C, 72.0 h) was determined as 33%.

Consider `CCOC(=O)N1Cc2cccc(c2)N(C(=O)OC(C)(C)C)CC=CCCOc2cc1c([N+](=O)[O-])c(N)n2`, for which the ring closure, yield of all isomers in data set [1] (from C=CCCOc1cc(N(Cc2cccc(N(CC=C)C(=O)OC(C)(C)C)c2)C(=O)OCC)c([N+](=O)[O-])c(N)n1, Grubbs catalyst 2nd generation, dichloromethane, 6.93 mM, 25.0 °C, 24.0 h) stood at 67%.

Molecule `CCOC(=O)N1Cc2cccc(c2)N(C(=O)OC(C)(C)C)CC=CCOc2cc1c([N+](=O)[O-])c(N)n2` showed a ring closure, yield of all isomers in data set [1] (from C=CCOc1cc(N(Cc2cccc(N(CC=C)C(=O)OC(C)(C)C)c2)C(=O)OCC)c([N+](=O)[O-])c(N)n1, Grubbs-Hoveyda catalyst 2nd generation (with chlorodicyclohexylborane), 1,2-dichloroethane, 4.1 mM, 120.0 °C, 16.0 h) of 40%.

As for `CCOC(=O)N1Cc2cccc(c2)OCC=CCCOc2cc1c([N+](=O)[O-])c(N)n2`, in data set [1] (from C=CCCOc1cc(N(Cc2cccc(OCC=C)c2)C(=O)OCC)c([N+](=O)[O-])c(N)n1, Grubbs 2nd generation, CH2Cl2, 5.22 mM, 25.0 °C, 20.0 h), the ring closure, yield of all isomers amounted to 15%.

Regarding `CCOC(=O)N1Cc2cccc(c2)OCC=CCOc2cc1c([N+](=O)[O-])c(N)n2`, in data set [1] (from C=CCOc1cccc(CN(C(=O)OCC)c2cc(OCC=C)nc(N)c2[N+](=O)[O-])c1, Hoveyda-Grubbs 2nd generation (with chlorodicyclohexylborane), 1,2-dichloroethane, 3.47 mM, 120.0 °C, 37.0 h), the ring closure, yield of all isomers worked out at 19%.

In turn, `CCOC(=O)N1Cc2cccc(c2)OCCC=CCOc2cc1c([N+](=O)[O-])c(N)n2` returned a ring closure, yield of all isomers in data set [1] (from C=CCCOc1cccc(CN(C(=O)OCC)c2cc(OCC=C)nc(N)c2[N+](=O)[O-])c1, Grubbs-Hoveyda catalyst 2nd generation (with chlorodicyclohexylborane), 1,2-dichloroethane, 4.18 mM, 120.0 °C, 32.0 h) of 36%.

In data set [1] (from C=CCCOc1cc(N(Cc2ncccc2OCC=C)C(=O)OCC)c([N+](=O)[O-])c(N)n1, Hoveyda-Grubbs 2nd generation (with chlorodicyclohexylborane), 1,2-dichloroethane, 3.6 mM, 120.0 °C, 3.0 h), `CCOC(=O)N1Cc2ncccc2OCC=CCCOc2cc1c([N+](=O)[O-])c(N)n2` yielded a ring closure, yield of all isomers of 22%.

On to `Nc1nc2cc3c1nc(O)n3Cc1cccc(c1)CCCCCO2` [Compound 4], for which the “LEC on HEK293 NFκB-luc (counterscreen)” value in the data set on HEK293 NFκB-luc was more than 10 µM. Also, in data set [2], the minimal effective concentration worked out at 2.56 µM. Besides, the “HEK293 TLR7-NFκB-luc (LEC; μM)” value on human TLR7 turned out to be 2.38 µM. The “LEC on HEK293 TLR8-NFκB-luc” value on human TLR8 is more than 10 µM.

As to `COc1ccc2cc1OC/C=C/COc1cc3c(nc(O)n3CC2)c(N)n1` [Compound 36], the minimal effective concentration in data set [2] came to 1.63 µM. In addition, on human TLR7, the “HEK293 TLR7-NFκB-luc (LEC; μM)” value amounted to 13.75 µM.
